Measured values: paper PMC5828360, “Identification and characterization of highly versatile peptide-vectors that bind non-competitively to the low-density lipoprotein receptor for in vivo targeting and delivery of small molecules and protein cargos” (PLoS ONE, 2018)
Where a SMILES comes first, the peptide text is derived from it. The star is where a group is joined. Propionyl = CCC(=O)*

Legend:
hLDLR = target: T1, hLDLR (Homo sapiens, UniProt P01130); test: Image J quantification of co-localization with hLDLR-GFP; type: cell-based; conditions: CHO-hLDLR-GFP, 10 μM, n = 3
T1 construct: Full length coding regions for hLDLR, mLDLR, rLDLR and hTfR were amplified by RT-PCR; expressed in transfected cells
T1 sequence (P01130 22-860): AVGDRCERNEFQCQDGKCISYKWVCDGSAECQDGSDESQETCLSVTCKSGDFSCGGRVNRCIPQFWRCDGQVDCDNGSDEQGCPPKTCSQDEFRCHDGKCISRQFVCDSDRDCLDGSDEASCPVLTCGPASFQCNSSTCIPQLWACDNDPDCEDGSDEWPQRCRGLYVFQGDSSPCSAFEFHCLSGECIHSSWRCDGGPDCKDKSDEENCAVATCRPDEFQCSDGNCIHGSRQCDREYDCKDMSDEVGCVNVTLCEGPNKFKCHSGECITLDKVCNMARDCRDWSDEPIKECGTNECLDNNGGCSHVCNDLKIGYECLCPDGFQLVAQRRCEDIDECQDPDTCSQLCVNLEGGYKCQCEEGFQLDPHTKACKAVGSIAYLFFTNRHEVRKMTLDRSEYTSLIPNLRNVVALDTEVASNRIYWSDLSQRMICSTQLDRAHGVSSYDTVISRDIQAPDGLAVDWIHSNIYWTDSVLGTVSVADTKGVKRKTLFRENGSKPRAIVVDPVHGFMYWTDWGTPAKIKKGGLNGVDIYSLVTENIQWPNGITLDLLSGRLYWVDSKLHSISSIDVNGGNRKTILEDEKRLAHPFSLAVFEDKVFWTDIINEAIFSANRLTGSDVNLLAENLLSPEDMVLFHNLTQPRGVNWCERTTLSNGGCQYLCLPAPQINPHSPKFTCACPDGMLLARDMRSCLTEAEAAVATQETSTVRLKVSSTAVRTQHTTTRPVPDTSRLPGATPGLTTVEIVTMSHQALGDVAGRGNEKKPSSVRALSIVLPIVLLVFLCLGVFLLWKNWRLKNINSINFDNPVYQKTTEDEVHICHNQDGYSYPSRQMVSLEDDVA
Procedure: Cells alone or incubated 1 hr at 37°C with phage or peptide conjugates (10μM for S-Tag, fluorescent or siRNA conjugates and 10nM for Fc conjugates) were washed and subsequently fixed with 4% paraformaldehyde, washed again and incubated for 30 min at room temperature in PBS containing 3% BSA with or without 0.1% triton X-100 (Sigma-Aldrich). Cells were washed with PBS and incubated for 1 hr with primary antibodies directed against the hLDLR (rabbit, 1/100, Acris, Herford, Germany), against M13 bacteriophage (mouse, 1/3000, Sigma-Aldrich), against the S-Tag (goat, 1/250, Abcam) or against the Fc (mouse, 1/100, Jackson ImmunoResearch), followed by 3 washes with PBS and incubation with Alexa fluor 488, 594 or 647 anti-rabbit, anti-mouse or anti-goat secondary antibodies (1/800, Invitrogen). Cell nuclei were labeled with Hoechst #33258 (0.5 μg/mL, Invitrogen). […] In some experiments, binding and endocytosis of macromolecular complexes were assessed on live CHO-hLDLR-EGFP cells. […] Following fixation, cell nuclei were labeled with Hoechst#33258. Mounted slides were acquired with a Leica TCS SP2 confocal microscope (Leica Microsystems, Heidelberg, Germany). Images were analyzed using ImageJ software and quantification of co-localization between two markers was performed using the JaCoP plug-in, by calculating Mander’s correlation coefficients from unmodified images.

mLDLR = target: T2, mLDLR (Mus musculus, UniProt P35951); conditions: in vivo, iv, 0.5 mg/kg
T2 construct: cells expressing LDLR in the zona fasciculata of WT mice; from tissue; host or cells: adrenal gland of C57Bl/6J mice (WT; ldlr-/- as control)
T2 sequence (P35951 22-862): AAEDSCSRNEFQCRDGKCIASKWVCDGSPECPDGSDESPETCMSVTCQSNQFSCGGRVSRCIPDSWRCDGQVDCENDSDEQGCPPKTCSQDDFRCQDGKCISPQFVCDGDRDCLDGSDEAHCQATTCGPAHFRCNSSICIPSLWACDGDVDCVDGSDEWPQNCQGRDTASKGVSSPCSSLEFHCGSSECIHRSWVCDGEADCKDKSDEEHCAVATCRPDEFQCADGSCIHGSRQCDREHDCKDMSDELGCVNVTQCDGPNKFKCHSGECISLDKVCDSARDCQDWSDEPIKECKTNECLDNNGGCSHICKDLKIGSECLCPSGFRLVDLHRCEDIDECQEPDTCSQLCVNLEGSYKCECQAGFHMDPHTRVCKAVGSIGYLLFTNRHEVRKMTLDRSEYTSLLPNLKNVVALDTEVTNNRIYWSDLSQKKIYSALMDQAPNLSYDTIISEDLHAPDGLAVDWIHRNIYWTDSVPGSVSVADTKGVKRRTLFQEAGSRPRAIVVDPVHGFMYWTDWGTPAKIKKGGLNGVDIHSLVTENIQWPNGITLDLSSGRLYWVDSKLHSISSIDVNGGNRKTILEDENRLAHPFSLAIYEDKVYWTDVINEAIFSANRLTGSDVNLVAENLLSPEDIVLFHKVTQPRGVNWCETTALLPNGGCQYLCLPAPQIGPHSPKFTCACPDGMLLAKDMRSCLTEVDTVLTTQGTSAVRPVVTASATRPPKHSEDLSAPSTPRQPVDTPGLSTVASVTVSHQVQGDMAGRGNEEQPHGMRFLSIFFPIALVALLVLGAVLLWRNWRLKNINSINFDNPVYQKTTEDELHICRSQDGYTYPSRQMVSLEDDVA
Procedure: For immunohistochemistry, transcardiac NaCl 0.9% perfusion was followed by 50 mL of PBS 1X- 4% paraformaldehyde (PFA). Mice organs were then removed and snap frozen in cold isopentane. Cryostat (Leica CM-3050-S) sections (14 μm thick) were stored at −80°C. Organ sections were first permeabilized and blocked for 1 hr at room temperature using a solution of PBS 1X, 0.1% Triton X-100 and 3% Bovine Serum Albumin (BSA). Sections were then incubated overnight at 4°C with anti-Fc-A594 (goat, 1/200, Jackson ImmunoResearch) and anti-mLDLR (goat 1/200, R&D Systems), followed by anti-goat-Alexa 488 (donkey, 1/800, Life Technologies) for 1 hr at room temperature. Nuclei were stained with Hoechst (0.5 μg/mL, Life Technologies). Omission of the primary antibody was used as control and no immunostaining was observed. Sections were mounted using Prolong Gold Antifading reagent (Life Technologies) on Superfrost glass slides. Images were taken and processed using a confocal microscope (LSM 700) and Zen software (Zeiss, Jena, Germany).

hTfR = target: T3, hTfR (Homo sapiens, UniProt P02786); test: Image J quantification of co-localization with hTfR-GFP (control); type: cell-based; conditions: CHO-hTfR-GFP, 10 μM
T3 construct: Full length coding regions for hLDLR, mLDLR, rLDLR and hTfR were amplified by RT-PCR; expressed in transfected cells
T3 sequence (P02786 whole entry): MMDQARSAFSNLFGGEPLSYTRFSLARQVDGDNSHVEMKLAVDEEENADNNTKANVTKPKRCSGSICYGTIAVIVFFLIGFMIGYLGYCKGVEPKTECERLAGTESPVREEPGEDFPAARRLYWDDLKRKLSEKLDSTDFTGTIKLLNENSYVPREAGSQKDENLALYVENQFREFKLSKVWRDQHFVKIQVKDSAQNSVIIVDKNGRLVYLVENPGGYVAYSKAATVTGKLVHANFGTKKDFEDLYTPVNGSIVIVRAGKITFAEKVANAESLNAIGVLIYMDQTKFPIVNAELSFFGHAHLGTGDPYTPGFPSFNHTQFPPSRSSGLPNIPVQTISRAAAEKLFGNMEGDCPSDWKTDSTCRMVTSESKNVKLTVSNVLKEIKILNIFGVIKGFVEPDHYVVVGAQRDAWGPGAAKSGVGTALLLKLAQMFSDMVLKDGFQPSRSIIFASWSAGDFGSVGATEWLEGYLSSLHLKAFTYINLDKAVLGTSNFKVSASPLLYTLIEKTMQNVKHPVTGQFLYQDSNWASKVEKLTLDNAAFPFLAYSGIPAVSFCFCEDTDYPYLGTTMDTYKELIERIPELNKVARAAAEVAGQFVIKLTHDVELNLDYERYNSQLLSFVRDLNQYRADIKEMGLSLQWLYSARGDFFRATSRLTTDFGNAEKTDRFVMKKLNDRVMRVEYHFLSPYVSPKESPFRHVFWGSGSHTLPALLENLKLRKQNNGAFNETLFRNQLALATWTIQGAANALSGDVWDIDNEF

Row | Molecule | percentage of hLDLR that co-localized with the S-Tag peptide (hLDLR) | other results
1 | Propionyl-SVIDALQYKLEGTTRLTRKRGLKLATALSLSNKFVEGSGGGKETAAAKFERQHMDS-NH2 [ApoB-S-Tag] | under 10% | 
2 | hIgG1Fc-SMCC- (Pr- cRPLGRMC-G-(CH2)2-S)2 (disulfide) [(VH4Sc)2-Fc, human IgG1-Fc chemically conjugated to scrambled VH4Sc peptide via sulfo-SMCC] |  | Fc labeling in adrenal gland zona fasciculata (mLDLR): no Fc labeling
3 | CCC(=O)N[C@@H](CC(C)C)C(=O)N[C@@H](CCCNC(=N)N)C(=O)N[C@@H](CCCCN)C(=O)N[C@@H](CC(C)C)C(=O)N[C@@H](CCCNC(=N)N)C(=O)N[C@@H](CCCCN)C(=O)N[C@@H](CCCNC(=N)N)C(=O)N[C@@H](CC(C)C)C(=O)N[C@@H](CC(C)C)C(=O)N[C@@H](CC(C)C)C(=O)N[C@@H](CCCNC(=N)N)C(=O)N[C@@H](CCCCN)C(=O)N[C@@H](CC(C)C)C(=O)N[C@@H](CCCNC(=N)N)C(=O)N[C@@H](CCCCN)C(=O)N[C@@H](CCCNC(=N)N)C(=O)N[C@@H](CC(C)C)C(=O)N[C@@H](CC(C)C)C(=O)NCC(=O)NCC(=O)NCC(=O)N[C@@H](CCCCN)C(=O)N[C@@H](CCC(=O)O)C(=O)N[C@H](C(=O)N[C@@H](C)C(=O)N[C@@H](C)C(=O)N[C@@H](C)C(=O)N[C@@H](CCCCN)C(=O)N[C@@H](Cc1ccccc1)C(=O)N[C@@H](CCC(=O)O)C(=O)N[C@@H](CCCNC(=N)N)C(=O)N[C@@H](CCC(N)=O)C(=O)N[C@@H](Cc1c[nH]cn1)C(=O)N[C@@H](CCSC)C(=O)N[C@@H](CC(=O)O)C(=O)N[C@@H](CO)C(N)=O)[C@@H](C)O [ApoE2-S-Tag] (Propionyl-LRKLRKRLLLRKLRKRLLGGGKETAAAKFERQHMDS-NH2) | under 10% | 
4 | CCC(=O)N[C@@H]1CSSC(C)(C)[C@@H](C(=O)NCC(=O)NCC(=O)NCC(=O)N[C@@H](CCCCN)C(=O)N[C@@H](CCC(=O)O)C(=O)N[C@H](C(=O)N[C@@H](C)C(=O)N[C@@H](C)C(=O)N[C@@H](C)C(=O)N[C@@H](CCCCN)C(=O)N[C@@H](Cc2ccccc2)C(=O)N[C@@H](CCC(=O)O)C(=O)N[C@@H](CCCNC(=N)N)C(=O)N[C@@H](CCC(N)=O)C(=O)N[C@@H](Cc2c[nH]cn2)C(=O)N[C@@H](CCSC)C(=O)N[C@@H](CC(=O)O)C(=O)N[C@@H](CO)C(N)=O)[C@@H](C)O)NC(=O)CNC(=O)[C@H](CCCNC(=N)N)NC(=O)[C@H](CC(C)C)NC(=O)[C@H](CCCNC(=N)N)NC(=O)[C@@H]2CSCN2C(=O)[C@H](CCSC)NC1=O |  | co-localization with hTfR (hTfR): No co-localization
